From patent publication US11963961B2, “Combination therapy comprising an ACC inhibitor” (Gilead Sciences, Inc., priority 2017, dated 2024)

Experiments:
Assay type in all cases: in vivo, human
[1] = tested on: non-cirrhotic subjects with NASH; test: Phase 2 trial of Compound 1 in NASH: acylcarnitine species by UHPLC-MS
Description: Methods: In this double-blind, placebo-controlled trial, 126 non-cirrhotic subjects with NASH diagnosed noninvasively by MRI proton density fat fraction (PDFF) ≥8% and liver stiffness ≥2.5 kPa by MR elastography (MRE), or historical liver biopsy consistent with NASH and stage 1 to 3 fibrosis, were randomized 2:2:1 to receive Compound 1 20 mg, Compound 1 5 mg, or placebo orally QD for 12 weeks ([…]). Centrally-read MRI-PDFF and MRE, and FibroScan and serum markers of fibrosis were measured at baseline and […]. In some subjects, liver stiffness and hepatic fat content by Controlled Attenuation Parameter (CAP) were assessed using transient elastography (FibroScan®; Echosens, Paris, France) at baseline (i.e. week 0) and week 12. Acylcarnitine species measurements were performed with Ultrahigh Performance Liquid Chromatography-Tandem Mass Spectroscopy (UHPLC-MS; Waters Acquity UHPLC, Waters Corporation, Milford, MA USA) and Hybrid Quadrupole-Orbitrap mass spectometer (Q-Exactive Thermo Fischer Scientific, Waltham, MA, USA) platforms in electrospray ionisation-positive and -negative modes as known.

[2] = tested on: subjects with compensated cirrhosis due to NASH; test: Proof-of-concept study of Compound 1 in compensated cirrhosis due to NASH
Description: Methods: In a proof-of-concept study, 10 subjects with suspected compensated cirrhosis (Child-Turcotte-Pugh [CTP]-A) due to NASH (defined by any one of biopsy, liver stiffness by magnetic resonance elastography [MRE]≥4.67 kPa or transient elastography ≥14.0 kPa, or Fibrotest ≥0.75) received Compound 1 20 mg orally once daily for 12 weeks. Centrally-read magnetic resonance imaging-proton density fat fraction (MRI-PDFF) and MRE, and serum markers of fibrosis were measured at baseline (BL), Week 4 (W4), and Week 12 ([…]). For DNL determination, heavy water (^2H2O, 35 mL) was administered three times daily for one-week cycles prior to baseline, W4, and […]. Deuterium incorporation into palmitate was measured in fasting plasma samples by GC/MS, and mass isotopomer distribution analysis was used to calculate hepatic DNL and its inhibition by Compound 1.

[3] = tested on: non-cirrhotic subjects with NASH; test: Phase 2 trial of Compound 1 in NASH: standard lipid tests and NMR LipoProfile lipoproteins in fasting serum; settings: for HDL-P (total HDL particles), median / HDL-C, median / VLDL-P (total VLDL particles), median / LDL-C, median / TG, median / TC, median / LDL-P (total LDL particles), median: Compound 1 20 mg daily; for HDL-P (total HDL particles), median: BL 30; for HDL-C, median: BL 42; for VLDL-P (total VLDL particles), median: BL 53; for LDL-C, median: BL 99; for TG, median: BL 160; for TC, median: BL 179; for LDL-P (total LDL particles), median: BL 1397
Description: Methods: In this double-blind, placebo-controlled trial, 126 non-cirrhotic subjects with NASH diagnosed noninvasively by MRI proton density fat fraction (PDFF) ≥8% and liver stiffness ≥2.5 kPa by MR elastography (MRE), or historical liver biopsy consistent with NASH and stage 1 to 3 fibrosis, were randomized 2:2:1 to receive Compound 1 20 mg, Compound 1 5 mg, or placebo orally QD for 12 weeks (W12). Centrally-read MRI-PDFF and MRE, and FibroScan and serum markers of fibrosis were measured at baseline and W12. In some subjects, liver stiffness and hepatic fat content by Controlled Attenuation Parameter (CAP) were assessed using transient elastography (FibroScan®; Echosens, Paris, France) at baseline (i.e. week 0) and week 12.
In addition to standard lipid tests (serum triglycerides (“TG”), total cholesterol (“TC”), low density lipoprotein cholesterol (“LDL-C”), and high density lipoprotein cholesterol (“HDL-C”), lipoproteins also were measured by nuclear magnetic resonance spectroscopy (NMR LipoProfile®, LabCorp) in fasting serum samples at baseline (“BL”), week 1 (W1), week 4 (W4), and W12. Changes from BL in Compound 1-treated subjects were evaluated using Wilcoxon sign-rank tests and comparisons vs placebo using Wilcoxon rank-sum tests (all with Bonferroni adjustment).

[4] = Compound 1 5 mg, PDFF Nonresponders
[5] = Compound 1 5 mg, PDFF Responders
[6] = Compound 1 20 mg, PDFF Nonresponders
[7] = Compound 1 20 mg, PDFF Responders

COc1ccccc1[C@H](Cn1c(=O)n(C(C)(C)C(=O)O)c(=O)c2c(C)c(-c3ncco3)sc21)OC1CCOCC1 [Compound 1, (R)-2-(1-(2-(2-methoxyphenyl)-2-((tetrahydro-2H-pyran-4-yl)oxy)ethyl)-5-methyl-6-(oxazol-2-yl)-2,4-dioxo-1,2-dihydrothieno[2,3-d]pyrimidin-3(4H)-yl)-2-methylpropanoic acid]
Acylcarnitine species compared according to PDFF response ([1]; Compound 1 5 mg): minimal changes | 3-hydroxybutyrylcarnitine (1), median % change from baseline [1, 4]: −4.08% | 5-dodecenoylcarnitine (C12:1), median % change from baseline [1, 4]: 15.43% | laurylcarnitine (C12), median % change from baseline [1, 4]: 15.23% | linolenoylcarnitine (C18:3), median % change from baseline [1, 4]: −23.55% | myristoleoylcarnitine (C14:1), median % change from baseline [1, 4]: 25.74% | myristoylcarnitine (C14), median % change from baseline [1, 4]: 12.05% | octadecenedioylcarnitine (C18:1-DC), median % change from baseline [1, 4]: 0% | palmitoleoylcarnitine (C16:1), median % change from baseline [1, 4]: 18.13% | 3-hydroxybutyrylcarnitine (1), median % change from baseline [1, 5]: −18.06% | 5-dodecenoylcarnitine (C12:1), median % change from baseline [1, 5]: 2.08% | laurylcarnitine (C12), median % change from baseline [1, 5]: 1.99% | linolenoylcarnitine (C18:3), median % change from baseline [1, 5]: 6.49% | myristoleoylcarnitine (C14:1), median % change from baseline [1, 5]: −4.71% | myristoylcarnitine (C14), median % change from baseline [1, 5]: −7.50% | octadecenedioylcarnitine (C18:1-DC), median % change from baseline [1, 5]: 33.24% | palmitoleoylcarnitine (C16:1), median % change from baseline [1, 5]: −0.06% | 3-hydroxybutyrylcarnitine (1), median % change from baseline [1, 6]: 34.27% | 5-dodecenoylcarnitine (C12:1), median % change from baseline [1, 6]: 58.85% | laurylcarnitine (C12), median % change from baseline [1, 6]: 36.72% | linolenoylcarnitine (C18:3), median % change from baseline [1, 6]: 20.43% | myristoleoylcarnitine (C14:1), median % change from baseline [1, 6]: 22.42% | myristoylcarnitine (C14), median % change from baseline [1, 6]: 23.92% | octadecenedioylcarnitine (C18:1-DC), median % change from baseline [1, 6]: 36.38% | palmitoleoylcarnitine (C16:1), median % change from baseline [1, 6]: 31.63% | 3-hydroxybutyrylcarnitine (1), median % change from baseline [1, 7]: −13.99% | 5-dodecenoylcarnitine (C12:1), median % change from baseline [1, 7]: −12.39% | laurylcarnitine (C12), median % change from baseline [1, 7]: −3.23% | linolenoylcarnitine (C18:3), median % change from baseline [1, 7]: −17.84% | myristoleoylcarnitine (C14:1), median % change from baseline [1, 7]: −7.22% | myristoylcarnitine (C14), median % change from baseline [1, 7]: −19.99% | octadecenedioylcarnitine (C18:1-DC), median % change from baseline [1, 7]: −11.01% | palmitoleoylcarnitine (C16:1), median % change from baseline [1, 7]: −9.82% | Multiple long and medium-chain acylcarnitine species, PDFF response versus no PDFF response ([1]; Compound 1 20 mg, before administration of the next daily dose): significantly reduced | Asymptomatic Grade 3 hypertriglyceridemia ([2]; Compound 1 20 mg once daily, 10 subjects, responded to fibrate therapy): One subject | Changes in MRE-stiffness or serum fibrosis markers ([2]; Compound 1 20 mg once daily, 12 weeks): No significant changes | Tolerability ([2]; Compound 1 20 mg once daily, 12 weeks, no premature discontinuation): well-tolerated | Other lipid parameters ([2]; Compound 1 20 mg once daily, BL to W12): unchanged | ≥30% relative decline in PDFF, % of subjects ([2]; Compound 1 20 mg once daily, W4, 5 of 10 subjects): 50% | ≥30% relative decline in PDFF, % of subjects ([2]; Compound 1 20 mg once daily, W12, 7 of 10 subjects): 70% | Fasting triglycerides, median ([2]; Compound 1 20 mg once daily, W12, IQR (142, 248), BL 147 (105, 231), P=0.008): 159 mg/dL | Hepatic PDFF (MRI-PDFF), median ([2]; Compound 1 20 mg orally once daily, W12, BL 9.2, P=0.004): 4.6% | Serum ALT, median ([2]; Compound 1 20 mg orally once daily, W12, BL 46, P=0.008): 32 U/L | Asymptomatic Grade 3 or 4 TG elevations (>500 mg/dL), number of subjects ([3]; Compound 1 5 mg): 9 subjects | Median relative change in triglycerides (TG) ([3]; Compound 1 5 mg, W12): +13% | Asymptomatic Grade 3 or 4 TG elevations (>500 mg/dL), number of subjects ([3]; Compound 1 20 mg): 7 subjects | HDL-P (total HDL particles), median ([3]; W1): 30 µmol/L | HDL-C, median ([3]; W1): 39 mg/dL | VLDL-P (total VLDL particles), median ([3]; W1): 72 nmol/L | LDL-C, median ([3]; W1): 102 mg/dL | TG, median ([3]; W1): 191 mg/dL | TC, median ([3]; W1): 192 mg/dL | LDL-P (total LDL particles), median ([3]; W1): 1260 nM | HDL-P (total HDL particles), median ([3]; W4): 30 µmol/L | HDL-C, median ([3]; W4): 39 mg/dL | VLDL-P (total VLDL particles), median ([3]; W4): 52 nmol/L | LDL-C, median ([3]; W4): 96 mg/dL | TG, median ([3]; W4): 188 mg/dL | TC, median ([3]; W4): 184 mg/dL | LDL-P (total LDL particles), median ([3]; W4): 1360 nM | HDL-P (total HDL particles), median ([3]; W12): 30 µmol/L | HDL-C, median ([3]; W12): 42 mg/dL | VLDL-P (total VLDL particles), median ([3]; W12): 52 nmol/L | LDL-C, median ([3]; W12): 99 mg/dL | TG, median ([3]; W12): 177 mg/dL | TC, median ([3]; W12): 182 mg/dL | LDL-P (total LDL particles), median ([3]; W12): 1230 nM | Changes in glucose, insulin, or HbA1c compared to placebo ([3]; Compound 1 20 mg or 5 mg): no significant changes | Median relative change in triglycerides (TG) ([3]; Compound 1 20 mg, W12): +11% | Changes from baseline in HDL-C, TC, and LDL-C ([3]; Compound 1-treated subjects, W12): not significant | Median TG increase ([3]; Compound 1-treated subjects, W12, IQR (−6, 72), p=0.14 vs placebo): 14 mg/dL | Changes in total HDL or total LDL particles ([3]; subjects on Compound 1): No significant changes | Time course of TG elevations ([3]; subjects on Compound 1): peaked at W1 and declined thereafter
